Measurements published in US20240190824A1, “INHIBITORS OF TREK (TWIK RELATED K+ CHANNELS) CHANNEL FUNCTION” (ONO PHARMACEUTICAL CO., LTD., priority 2019, published 2024).
pIC50: −log10 of the molar value.

target: human TREK-1 (Homo sapiens (Human), UniProt O95069); test: TREK-1 Thallium (Tl+) flux assay; format: cell-based; details: CHO-K1 cells stably expressing human TREK-1
Sequence (O95069 whole entry): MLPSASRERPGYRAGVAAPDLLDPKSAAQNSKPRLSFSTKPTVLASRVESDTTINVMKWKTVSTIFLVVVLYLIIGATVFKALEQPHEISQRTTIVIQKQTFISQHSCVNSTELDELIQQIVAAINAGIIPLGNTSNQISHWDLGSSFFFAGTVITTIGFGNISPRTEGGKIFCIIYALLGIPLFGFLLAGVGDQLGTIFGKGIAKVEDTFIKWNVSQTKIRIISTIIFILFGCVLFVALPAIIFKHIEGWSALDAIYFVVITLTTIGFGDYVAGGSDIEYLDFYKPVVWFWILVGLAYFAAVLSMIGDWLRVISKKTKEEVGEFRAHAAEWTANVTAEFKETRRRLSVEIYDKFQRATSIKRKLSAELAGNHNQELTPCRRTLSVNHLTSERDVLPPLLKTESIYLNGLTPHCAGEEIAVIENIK

| Compound | pIC50 |
| --- | --- |
| C[C@H]1C[C@@H]1C(=O)Nc1ccc(Cl)c(C(=O)Nc2ncc(C#Cc3ccccc3)cc2F)c1 [Compound 2, 2-chloro-N-[3-fluoro-5-(2-phenylethynyl)-2-pyridyl]-5-[[(1S,2S)-2-methylcyclopropanecarbonyl]amino]benzamide] | 7.05 |
| CC1CC1C(=O)Nc1ccc(Cl)c(C(=O)Nc2ncc(C#Cc3ccccc3)cc2F)c1 (centres unmarked) [Compound 3, 2-chloro-N-[3-fluoro-5-(2-phenylethynyl)-2-pyridyl]-5-[(2-methylcyclopropanecarbonyl)amino]benzamide] | 7.15 |
| C[C@H]1C[C@@H]1C(=O)Nc1ccc(Cl)c(C(=O)Nc2ncc(C#Cc3cccc(F)c3)cc2F)c1 [Compound 4, 2-chloro-N-[3-fluoro-5-[2-(3-fluorophenyl)ethynyl]-2-pyridyl]-5-[[(1S,2S)-2-methylcyclopropanecarbonyl]amino]benzamide] | 6.89 |
| O=C(Nc1ncc(C#Cc2ccccc2)cc1F)c1cc(NC(=O)C2(F)CC2)ccc1Cl [Compound 6, 2-chloro-5-[(1-fluorocyclopropanecarbonyl)amino]-N-[3-fluoro-5-(2-phenylethynyl)-2-pyridyl]benzamide] | 6.77 |
| O=C(Nc1ncc(C#Cc2ccc(F)cc2)cc1F)c1cc(NC(=O)C2CC2)ccc1Cl [Compound 7, 2-chloro-5-(cyclopropanecarbonylamino)-N-[3-fluoro-5-[2-(4-fluorophenyl)ethynyl]-2-pyridyl]benzamide] | 6.82 |
| Cc1cc(C#Cc2ccccc2)cnc1NC(=O)c1cc(NC(=O)C2CC2)ccc1Cl [Compound 9, 2-chloro-5-(cyclopropanecarbonylamino)-N-[3-methyl-5-(2-phenylethynyl)-2-pyridyl]benzamide] | 6.74 |
| O=C(Nc1ncc(C#Cc2ccccc2)cc1F)c1cc(NC(=O)C2COCCO2)ccc1Cl (centres unmarked) [Compound 10, N-[4-chloro-3-[[3-fluoro-5-(2-phenylethynyl)-2-pyridyl]carbamoyl]phenyl]-1,4-dioxane-2-carboxamide] | 6.70 |
| Cc1cc(C#Cc2ccc(F)cc2)cnc1NC(=O)c1cc(NC(=O)C2CCO2)ccc1Cl (centres unmarked) [Compound 12, N-[4-chloro-3-[[5-[2-(4-fluorophenyl)ethynyl]-3-methyl-2-pyridyl]carbamoyl]phenyl]oxetane-2-carboxamide] | 6.51 |
| Cc1cc(C#Cc2cccc(F)c2)cnc1NC(=O)c1cc(NC(=O)C2COCCO2)ccc1Cl (centres unmarked) [Compound 13, N-[4-chloro-3-[[5-[2-(3-fluorophenyl)ethynyl]-3-methyl-2-pyridyl]carbamoyl]phenyl]-1,4-dioxane-2-carboxamide] | 6.55 |
| Cc1cc(C#Cc2ccc(F)cc2)cnc1NC(=O)c1cc(NC(=O)C2COCCO2)ccc1Cl (centres unmarked) [Compound 14, N-[4-chloro-3-[[5-[2-(4-fluorophenyl)ethynyl]-3-methyl-2-pyridyl]carbamoyl]phenyl]-1,4-dioxane-2-carboxamide] | 6.64 |
| Cc1cc(C#Cc2ccccn2)cnc1NC(=O)c1cc(NC(=O)OC(C)(C)C)ccc1Cl [Compound 15, tert-butyl N-[4-chloro-3-[[3-methyl-5-[2-(2-pyridyl)ethynyl]-2-pyridyl]carbamoyl]phenyl]carbamate] | 6.43 |
| Cc1cc(C#Cc2ccccc2)cnc1NC(=O)c1cc(C(=O)N2CC(F)(F)C2)ccc1Cl [Compound 16, 2-chloro-5-(3,3-difluoroazetidine-1-carbonyl)-N-[3-methyl-5-(2-phenylethynyl)-2-pyridyl]benzamide] | 6.49 |
| Cc1cc(C#Cc2ccccc2)cnc1NC(=O)c1cc(C(=O)NC(C)(C)CO)ccc1Cl [Compound 17, 4-chloro-N1-(2-hydroxy-1,1-dimethyl-ethyl)-N3-[3-methyl-5-(2-phenylethynyl)-2-pyridyl]benzene-1,3-dicarboxamide] | 6.74 |
| Cc1cc(C#Cc2cccc(F)c2)cnc1NC(=O)c1cc(C(=O)N2CC(C)(O)C2)ccc1Cl [Compound 18, 2-chloro-N-[5-[2-(3-fluorophenyl)ethynyl]-3-methyl-2-pyridyl]-5-(3-hydroxy-3-methyl-azetidine-1-carbonyl)benzamide] | 6.62 |
